Experimental data published in USRE47689E1, “Compounds for treating spinal muscular atrophy” (PTC Therapeutics, Inc., priority 2011, dated 2019).

Experiments:
[1] = test system: SMN2 minigene (full length SMN2 minigene mRNA containing SMN2 exon 7); experiment: SMN2 minigene mRNA splicing RT-qPCR assay in cultured cells; format: cell-based, human; conditions: Homo sapiens, HEK293-H; HEK293H cells stably transfected with SMN2-A minigene; 24 hours; 7-point concentration curve; 1.5-fold relative to vehicle-treated cells; read-out: EC1.5x for production of full length SMN2 mRNA
Procedure, shortened: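 HEK293H cells stably carrying the SMN2-A minigene treated 24 h at 37° C with compound (DMSO, 200× stock), then lysed. Multiplex RT-qPCR (SMN primers 0.4 μM final; 40 cycles) measures full-length exon 7-containing minigene mRNA, normalized to GAPDH and to vehicle; EC1.5x derived and binned by stars.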

[2] = test system: Smn protein; experiment: Smn protein assay in cultured cells (SMN HTRF); format: cell-based, human; conditions: 48 hours; for maximum fold (Fold) increase of Smn protein: SMA patient fibroblast cells, 7-point concentration data, fold increase relative to vehicle control (SMN HTRF); for EC1.5x (concentration giving 1.5-fold Smn protein increase): SMA Type 1 patient fibroblast cells (GM03813), 7-point concentration curve, SMN HTRF, concentration producing 1.5 times Smn protein vs DMSO vehicle control, read-out: EC1.5x for Smn protein expression
Procedure, shortened: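 Lysates in RIPA with protease inhibitors are incubated overnight at room temperature with HTRF anti-SMN antibodies. EC1.5x is derived from fold increase in ΔF over vehicle.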

SMILES | melting point [°C] | EC (1.5-fold) [1] [µM] | maximum fold (Fold) increase of Smn protein [2] | EC1.5x (concentration giving 1.5-fold Smn protein increase) [2] [nM]
Cc1cccn2cc(-c3cc4ccc(N5C[C@@H](C)N[C@@H](C)C5)cc4oc3=O)nc12 [Compound 136, 7-[(3R,5S)-3,5-dimethylpiperazin-1-yl]-3-(8-methylimidazo[1,2-a]pyridin-2-yl)-2H-chromen-2-one] | 243 to 246 | 1 to 3 | ** (fold increase between >1.2 and ≤1.35) | –
Cc1cn2cc(-c3cc4ccc(N5CCN(C(C)C)[C@@H](C)C5)cc4oc3=O)cc2c(C)n1 [Compound 768, 3-(1,3-dimethylpyrrolo[1,2-a]pyrazin-7-yl)-7-[(3S)-3-methyl-4-(propan-2-yl)piperazin-1-yl]-2H-chromen-2-one] | 153 to 156 | < 0.1 | **** (fold increase between >1.5 and ≤1.65) | < 300
CN1CCN(c2cc(F)c3cc(-c4nc5c(F)cccc5o4)c(=O)oc3c2)CC1 [Compound 366, 5-fluoro-3-(4-fluoro-1,3-benzoxazol-2-yl)-7-(4-methylpiperazin-1-yl)-2H-chromen-2-one] | 256 to 260 | 0.3 to 1 | ** (fold increase between >1.2 and ≤1.35) | –
CN1CCN(c2ccc3cc(-c4cn5cc(Cl)sc5n4)c(=O)oc3c2)CC1 [Compound 478, 3-(2-chloroimidazo[2,1-b][1,3]thiazol-6-yl)-7-(4-methylpiperazin-1-yl)-2H-chromen-2-one] | 268 to 270 | 0.3 to 1 | * (maximum fold increase of ≤1.2) | –
Cc1cn2cc(-c3cc4ccc(N5CCC(C)(N)CC5)cc4oc3=O)nc2c(C)n1 [Compound 920, 7-(4-amino-4-methylpiperidin-1-yl)-3-(6,8-dimethylimidazo[1,2-a]pyrazin-2-yl)-2H-chromen-2-one] | 190 to 192 | < 0.1 | ***** (fold increase >1.65) | < 300
Cc1ccc2nc(-c3cc4ccc(N5CC[C@H](NC(=O)OC(C)(C)C)C5)cc4oc3=O)cn2c1 [Compound 177, tert-butyl {(3S)-1-[3-(6-methylimidazo[1,2-a]pyridin-2-yl)-2-oxo-2H-chromen-7-yl]pyrrolidin-3-yl}carbamate] | 225 to 230 | 3 to 30 | * (maximum fold increase of ≤1.2) | –
Cc1cn2cc(-c3cc4ccc(CCN5CCNCC5)cc4oc3=O)nc2c(C)n1 [Compound 866, 3-(6,8-dimethylimidazo[1,2-a]pyrazin-2-yl)-7-[2-(piperazin-1-yl)ethyl]-2H-chromen-2-one] | 186 to 188 | 0.1 to 0.3 | *** (fold increase between >1.35 and ≤1.5) | 300 to 1000
Cc1cn2cc(-c3cc4ccc(N5CCN(C)C(C)(C)C5)cc4oc3=O)nc2c(C)n1 [Compound 737, 3-(6,8-dimethylimidazo[1,2-a]pyrazin-2-yl)-7-(3,3,4-trimethylpiperazin-1-yl)-2H-chromen-2-one] | 185 to 187 | < 0.1 | ***** (fold increase >1.65) | < 300
Cc1cc(F)c2nc(-c3cc4ccc(N5CCNC(C)(C)C5)cc4oc3=O)cn2c1 [Compound 426, 7-(3,3-dimethylpiperazin-1-yl)-3-(8-fluoro-6-methylimidazo[1,2-a]pyridin-2-yl)-2H-chromen-2-one] | 275 to 284 | 0.1 to 0.3 | *** (fold increase between >1.35 and ≤1.5) | –
Cc1cccn2cc(-c3cc4ccc(N5CCN(C)CC5)cc4oc3=O)nc12 [Compound 84, 3-(8-methylimidazo[1,2-a]pyridin-2-yl)-7-(4-methylpiperazin-1-yl)-2H-chromen-2-one] | 224 to 226 | 0.3 to 1 | *** (fold increase between >1.35 and ≤1.5) | 1000 to 3000
CNCc1ccc2cc(-c3nc4ccccc4s3)c(=O)oc2c1 [Compound 78, 3-(1,3-benzothiazol-2-yl)-7-[(methylamino)methyl]-2H-chromen-2-one] | 156 to 160 | 0.3 to 1 | *** (fold increase between >1.35 and ≤1.5) | –
Cc1cn2cc(-c3cc4ccc(C5CCN(CCO)CC5)cc4oc3=O)ccc2n1 [Compound 829, 7-[1-(2-hydroxyethyl)piperidin-4-yl]-3-(2-methylimidazo[1,2-a]pyridin-6-yl)-2H-chromen-2-one] | 222 to 226 | < 0.1 | ***** (fold increase >1.65) | < 300
